Results taken from US12637437B2, “Herbicidal compounds” (SYNGENTA CROP PROTECTION AG, priority 2021, dated 2026).

What was measured:
Assay type in all cases: in vivo
Setaria faberi (SETFA) [1] = assay: Post-emergence herbicidal glasshouse test, SETFA; conditions: 125 g/h, evaluated after 13 days, five-point scale
Description: (§1) Seeds of a variety of test species are sown in standard soil in pots (Lolium perenne (LOLPE), Amaranthus retoflexus (AMARE), Abutilon theophrasti (ABUTH), Setaria faberi (SETFA), Echinochloa crus-galli (ECHCG), Ipomoea hederacea (IPOHE)). After cultivation for one day (pre-emergence) or after 8 days cultivation (post-emergence) under controlled conditions in a glasshouse (at 24/16° C., day/night; 14 hours light; 65% humidity), the plants are sprayed with an aqueous spray solution derived from the formulation of the technical active ingredient in acetone/water (50:50) solution containing 0.5% Tween 20 (polyoxyethelyene sorbitan monolaurate, CAS RN 9005-64-5). Compounds are applied at 125 g/h unless otherwise indicated. The test plants are then grown in a glasshouse under controlled conditions in a glasshouse (at 24/16° C., day/night; 14 hours light; 65% humidity) and watered twice daily. After 13 days for pre and post-emergence, the test is evaluated for the percentage damage caused to the plant. The biological activities are shown in the following table on a five-point scale (5=80-100%; 4=60-79%; 3=40-59%; 2=20-39%; 1=0-19%). “—” denotes not tested on this species or data not captured.

Setaria faberi (SETFA) [2] = assay: Pre-emergence herbicidal glasshouse test, SETFA; conditions: 125 g/h, evaluated after 13 days, five-point scale
Description: as §1

[3] = tested on: Echinochloa crus-galli (ECHCG); assay: Post-emergence herbicidal glasshouse test, ECHCG; conditions: 125 g/h, evaluated after 13 days, five-point scale
Description: as §1

[4] = tested on: Ipomoea hederacea (IPOHE); assay: Post-emergence herbicidal glasshouse test, IPOHE; conditions: 125 g/h, evaluated after 13 days, five-point scale
Description: as §1

[5] = tested on: Amaranthus retoflexus (AMARE); assay: Post-emergence herbicidal glasshouse test, AMARE; parameters: dose or concentration left out as unconfirmed; conditions: evaluated after 13 days, five-point scale
Description: as §1

[6] = tested on: Ipomoea hederacea (IPOHE); assay: Pre-emergence herbicidal glasshouse test, IPOHE; conditions: 125 g/h, evaluated after 13 days, five-point scale
Description: as §1

[7] = tested on: Amaranthus retoflexus (AMARE); assay: Pre-emergence herbicidal glasshouse test, AMARE; conditions: 125 g/h, evaluated after 13 days, five-point scale
Description: as §1

[8] = tested on: Echinochloa crus-galli (ECHCG); assay: Pre-emergence herbicidal glasshouse test, ECHCG; conditions: 125 g/h, evaluated after 13 days, five-point scale
Description: as §1

| SMILES | percentage damage caused to the plant, POST Application SETFA (Setaria faberi (SETFA) [1]) | percentage damage caused to the plant, PRE Application SETFA (Setaria faberi (SETFA) [2]) | percentage damage caused to the plant, POST Application ECHCG [3] | percentage damage caused to the plant, POST Application IPOHE [4] | percentage damage caused to the plant, POST Application AMARE [5] | percentage damage caused to the plant, PRE Application IPOHE [6] | percentage damage caused to the plant, PRE Application AMARE [7] | percentage damage caused to the plant, PRE Application ECHCG [8] |
| --- | --- | --- | --- | --- | --- | --- | --- | --- |
| Cn1nnnc1NC(=O)c1ccc(OC(F)(F)F)c(NC(=O)OCC(F)F)c1Cl [Compound 1.011] | 5 (5=80-100%) | 5 (5=80-100%) | 5 (5=80-100%) | 4 (4=60-79%) | 4 (4=60-79%) | 4 (4=60-79%) | 5 (5=80-100%) | 5 (5=80-100%) |
| Cn1nnnc1NC(=O)c1ccc(OC(F)(F)F)c(NC(=O)OCCC#N)c1Cl [Compound 1.012] | 5 (5=80-100%) | 5 (5=80-100%) | 5 (5=80-100%) | 5 (5=80-100%) | 5 (5=80-100%) | 4 (4=60-79%) | 5 (5=80-100%) | 5 (5=80-100%) |
| Cn1nnnc1NC(=O)c1ccc(OC(F)(F)F)c(NC(=O)OCCS(C)(=O)=O)c1Cl [Compound 1.013] | 5 (5=80-100%) | 2 (2=20-39%) | 5 (5=80-100%) | 2 (2=20-39%) | 4 (4=60-79%) | 2 (2=20-39%) | 5 (5=80-100%) | 2 (2=20-39%) |
| CCCOC(=O)Nc1c(OC(F)(F)F)ccc(C(=O)Nc2nnnn2C)c1Cl [Compound 1.014] | 5 (5=80-100%) | 4 (4=60-79%) | 5 (5=80-100%) | 4 (4=60-79%) | 4 (4=60-79%) | 2 (2=20-39%) | 3 (3=40-59%) | 4 (4=60-79%) |
| Cn1nnnc1NC(=O)c1ccc(OC(F)F)c(NC(=O)OCC(F)F)c1Cl [Compound 1.015] | 5 (5=80-100%) | 5 (5=80-100%) | 5 (5=80-100%) | 4 (4=60-79%) | 5 (5=80-100%) | 3 (3=40-59%) | 5 (5=80-100%) | 5 (5=80-100%) |
| CCCOC(=O)Nc1c(OC(F)F)ccc(C(=O)Nc2nnnn2C)c1Cl [Compound 1.016] | 5 (5=80-100%) | 3 (3=40-59%) | 5 (5=80-100%) | 3 (3=40-59%) | 4 (4=60-79%) | 2 (2=20-39%) | 5 (5=80-100%) | 4 (4=60-79%) |
| CC(C)OC(=O)Nc1c(OC(F)F)ccc(C(=O)Nc2nnnn2C)c1Cl [Compound 1.017] | 5 (5=80-100%) | 5 (5=80-100%) | 5 (5=80-100%) | 5 (5=80-100%) | 5 (5=80-100%) | 4 (4=60-79%) | 5 (5=80-100%) | 5 (5=80-100%) |
| COCCOC(=O)Nc1c(OC(F)F)ccc(C(=O)Nc2nnnn2C)c1Cl [Compound 1.018] | 5 (5=80-100%) | 3 (3=40-59%) | 5 (5=80-100%) | 4 (4=60-79%) | 4 (4=60-79%) | 2 (2=20-39%) | 4 (4=60-79%) | 4 (4=60-79%) |
| COCCCOC(=O)Nc1c(OC(F)(F)F)ccc(C(=O)Nc2nnnn2C)c1Cl [Compound 1.019] | 5 (5=80-100%) | 2 (2=20-39%) | 5 (5=80-100%) | 4 (4=60-79%) | 5 (5=80-100%) | 4 (4=60-79%) | 3 (3=40-59%) | 5 (5=80-100%) |
| Cn1nnnc1NC(=O)c1ccc(OC(F)F)c(NC(=O)OC2COC2)c1Cl [Compound 1.026] |  | 3 (3=40-59%) | 5 (5=80-100%) | 5 (5=80-100%) | 5 (5=80-100%) | 4 (4=60-79%) | 5 (5=80-100%) | 5 (5=80-100%) |
| Cn1nnnc1NC(=O)c1ccc(OC(F)F)c(NC(=O)OCCS(C)(=O)=O)c1Cl [Compound 1.028] |  | 1 (1=0-19%) | 2 (2=20-39%) | 3 (3=40-59%) | 5 (5=80-100%) | 2 (2=20-39%) | 5 (5=80-100%) | 3 (3=40-59%) |
| COC(=O)N(C)c1c(OC(F)(F)F)ccc(C(=O)Nc2nnnn2C)c1Cl [Compound 1.029] |  | 5 (5=80-100%) | 5 (5=80-100%) | 5 (5=80-100%) | 5 (5=80-100%) | 5 (5=80-100%) | 5 (5=80-100%) | 5 (5=80-100%) |
| CCN(C(=O)OC)c1c(OC(F)(F)F)ccc(C(=O)Nc2nnnn2C)c1Cl [Compound 1.030] |  | 5 (5=80-100%) | 5 (5=80-100%) | 5 (5=80-100%) | 5 (5=80-100%) | 4 (4=60-79%) | 5 (5=80-100%) | 5 (5=80-100%) |
